Measured values published in patent US20100267561A1, “HERBICIDAL PYRIDAZINONE DERIVATIVES” (priority 2007, published 2010).

What was measured:
Format in all cases: in vivo
[1] = test system: goosegrass (Eleusine indica); experiment: Test B pre-/postemergence plant response; details: for Goosegrass plant response rating: 8 g ai/ha
Procedure, shortened: (§1)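 Seeds were sown and sprayed preemergence, while plants at 2 to 18 cm (1- to 4-leaf stage) got postemergence sprays. Compounds were formulated in a non-phytotoxic solvent mixture with surfactant. After 13 to 15 days in a greenhouse, injury was rated visually against untreated controls, 0 (no effect) to 100 (complete control).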

soybean (Glycine max) = experiment: Test B pre-/postemergence plant response; details: for Soybean plant response rating: 8 g ai/ha
Procedure, shortened: as §1

[2] = test system: downy bromegrass (Bromus tectorum); experiment: Test B pre-/postemergence plant response; details: for Bromegrass, Downy plant response rating: 8 g ai/ha
Procedure, shortened: as §1

[3] = test system: Russian thistle (Salsola iberica); experiment: Test B pre-/postemergence plant response; details: Preemergence
Procedure, shortened: as §1

[4] = test system: common (oilseed) sunflower (Helianthus annuus); experiment: Test B pre-/postemergence plant response; details: Preemergence
Procedure, shortened: as §1

[5] = test system: giant foxtail (Setaria faberii); experiment: Test B pre-/postemergence plant response; details: for Foxtail, Giant plant response rating: 8 g ai/ha
Procedure, shortened: as §1

[6] = test system: surinam grass (Brachiaria decumbens); experiment: Test B pre-/postemergence plant response; details: for Surinam Grass plant response rating: 8 g ai/ha
Procedure, shortened: as §1

[7] = test system: morningglory (Ipomoea coccinea); experiment: Test B pre-/postemergence plant response; details: for Morningglory plant response rating: 8 g ai/ha
Procedure, shortened: as §1

[8] = test system: wheat (Triticum aestivum); experiment: Test B pre-/postemergence plant response; details: for Wheat plant response rating: 8 g ai/ha
Procedure, shortened: as §1

[9] = test system: eastern black (E.B.) nightshade (Solanum ptycanthum); experiment: Test B pre-/postemergence plant response; details: Preemergence
Procedure, shortened: as §1

rice (Oryza sativa) = experiment: Test B flooded paddy test plant response
Procedure, shortened: (§2)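 2-leaf plants; pots flooded 3 cm above soil; compound added to paddy water; depth maintained. Greenhouse 13–15 d. Visual rating vs controls, 0 (no effect) to 100 (complete control); dash = no result.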

[10] = test system: umbrella sedge (Cyperus difformis); experiment: Test B flooded paddy test plant response
Procedure, shortened: as §2

[11] = test system: barnyardgrass (Echinochloa crus-galli); experiment: Test B flooded paddy test plant response
Procedure, shortened: as §2

[12] = test system: ducksalad (Heteranthera limosa); experiment: Test B flooded paddy test plant response
Procedure, shortened: as §2

[13] = Postemergence, 16 g ai/ha, scale 0 to 100
[14] = Postemergence, 31 g ai/ha, scale 0 to 100, 0 no effect, 100 complete control
[15] = Postemergence, 62 g ai/ha, scale 0 to 100, 0 no effect, 100 complete control
[16] = Preemergence, 16 g ai/ha, scale 0 to 100 (0 no effect, 100 complete control)
[17] = Preemergence, 31 g ai/ha, 0 to 100 scale, 0 no effect, 100 complete control
[18] = Preemergence, 62 g ai/ha, scale 0 to 100
[19] = 16 g ai/ha, scale 0 to 100 (0 no effect, 100 complete control)
[20] = 31 g ai/ha, 0 to 100 scale, 0 no effect, 100 complete control
[21] = Flood (flooded paddy test), 62 g ai/ha, scale 0 to 100, 0 no effect, 100 complete control
[22] = Flood (flooded paddy test), 125 g ai/ha, scale 0 to 100, 0 no effect, 100 complete control
[23] = Flood (flooded paddy test), 250 g ai/ha, scale 0 to 100, 0 no effect, 100 complete control
[24] = Flood, 31 g ai/ha, scale 0 to 100

Cc1cc(-c2ccc(Cl)cc2)nn1-c1c(OC(=O)c2cccc(Cl)c2)cnn(C)c1=O [Compound 32]
95: Plant response rating, Foxtail, Giant [5, 16]
30: Plant response rating, Wheat [8, 13] | Plant response rating, Rice (rice (Oryza sativa); [22]) | Plant response rating, Sedge, Umbrella [10, 21] | Plant response rating, Sedge, Umbrella [10, 22] | Plant response rating, Sedge, Umbrella [10, 23] | Plant response rating, Ducksalad [12, 21] | Plant response rating, Ducksalad [12, 24]
70: Plant response rating, Goosegrass [1, 14] | Plant response rating, Goosegrass [1, 15] | Plant response rating, Surinam Grass [6, 13] | Surinam Grass plant response rating ([6]; Preemergence, scale 0 to 100) | Plant response rating, Wheat [8, 18] | Plant response rating, Barnyardgrass [11, 23]
45: Plant response rating, Bromegrass, Downy [2, 14]
40: Plant response rating, Ducksalad [12, 22] | Plant response rating, Ducksalad [12, 23]
65: Plant response rating, Goosegrass [1, 13] | Surinam Grass plant response rating ([6]; postemergence, 0-100 scale) | Plant response rating, Rice (rice (Oryza sativa); [23]) | Plant response rating, Barnyardgrass [11, 22]
75: Plant response rating, Bromegrass, Downy [2, 18] | Foxtail, Giant plant response rating ([5]; postemergence, 0-100 scale) | Plant response rating, Surinam Grass [6, 16]
98: Plant response rating, Goosegrass [1, 16] | Plant response rating, Goosegrass [1, 17] | Plant response rating, Foxtail, Giant [5, 14] | Plant response rating, Surinam Grass [6, 15]
10: Plant response rating, Bromegrass, Downy [2, 13] | Plant response rating, Barnyardgrass [11, 24]
0: Goosegrass plant response rating ([1]; postemergence, 0-100 scale) | Soybean plant response rating (soybean (Glycine max); postemergence, 0-100 scale) | Plant response rating, Soybean (soybean (Glycine max); [13]) | Plant response rating, Soybean (soybean (Glycine max); [15]) | Plant response rating, Soybean (soybean (Glycine max); [16]) | Plant response rating, Soybean (soybean (Glycine max); [17]) | Plant response rating, Soybean (soybean (Glycine max); [18]) | Soybean plant response rating (soybean (Glycine max); Preemergence, scale 0 to 100) | Plant response rating, Bromegrass, Downy [2, 16] | Plant response rating, Bromegrass, Downy [2, 17] | Bromegrass, Downy plant response rating ([2]; Preemergence, scale 0 to 100) | Plant response rating, Russian Thistle [3, 19] | Plant response rating, Russian Thistle [3, 20] | Plant response rating, Russian Thistle ([3]; 62 g ai/ha, scale 0 to 100) | Russian Thistle plant response rating ([3]; 8 g ai/ha, scale 0 to 100) | Plant response rating, Sunflower [4, 19] | Plant response rating, Sunflower [4, 20] | Plant response rating, Sunflower ([4]; 62 g ai/ha, scale 0 to 100) | Sunflower plant response rating ([4]; 8 g ai/ha, scale 0 to 100) | Morningglory plant response rating ([7]; postemergence, 0-100 scale) | Plant response rating, Morningglory [7, 13] | Plant response rating, Morningglory [7, 14] | Plant response rating, Morningglory [7, 15] | Plant response rating, Morningglory [7, 16] | Plant response rating, Morningglory [7, 17] | Plant response rating, Morningglory [7, 18] | Morningglory plant response rating ([7]; Preemergence, scale 0 to 100) | Wheat plant response rating ([8]; postemergence, 0-100 scale) | Plant response rating, Wheat [8, 16] | Wheat plant response rating ([8]; Preemergence, scale 0 to 100) | Plant response rating, Nightshade, E. B. [9, 19] | Plant response rating, Nightshade, E. B. [9, 20] | Plant response rating, Nightshade, E. B. ([9]; 62 g ai/ha, scale 0 to 100) | Nightshade, E. B. plant response rating ([9]; 8 g ai/ha, scale 0 to 100) | Plant response rating, Rice (rice (Oryza sativa); [21]) | Plant response rating, Rice (rice (Oryza sativa); [24])
20: Plant response rating, Wheat [8, 17] | Plant response rating, Sedge, Umbrella [10, 24] | Plant response rating, Barnyardgrass [11, 21]
100: Plant response rating, Goosegrass [1, 18] | Plant response rating, Foxtail, Giant [5, 15] | Plant response rating, Foxtail, Giant [5, 17] | Plant response rating, Foxtail, Giant [5, 18] | Plant response rating, Surinam Grass [6, 17] | Plant response rating, Surinam Grass [6, 18]
85: Foxtail, Giant plant response rating ([5]; Preemergence, scale 0 to 100)
80: Plant response rating, Foxtail, Giant [5, 13]
60: Goosegrass plant response rating ([1]; Preemergence, scale 0 to 100) | Plant response rating, Bromegrass, Downy [2, 15]
5: Bromegrass, Downy plant response rating ([2]; postemergence, 0-100 scale)
